Data on 1 substance can be found in paper PMC4585962, “A peptide factor secreted by Staphylococcus pseudintermedius exhibits properties of both bacteriocins and virulence factors” (Scientific Reports, 2015).

No end group written: not given here. *: point of attachment. For = O=C*

The test system of data set [1] is B. subtilis 1A751 (pALCP2G). The data set can be described thus: GFP release assay. In kind it is cell-based, Bacillus subtilis. The following applies: 2 × 10^6 CFU in PBS, 1 h 37 °C, 0.23 to 15 μM BacSp222, fluorescence of supernatant 480/510 nm. As to the method:
(§1) The bacteria transformed with GFP-encoding plasmids (pCN68[59] for S. aureus RN4220; pALCP2G[60] for B. subtilis 1A751[61] and E. coli DH5α) were grown overnight in TSB supplemented with appropriate antibiotics, washed twice and finally suspended in PBS. Fifty microliters of the suspensions containing 2 × 10^6 CFU of bacteria were then incubated for 1 h at 37 °C with serial dilutions of BacSp222 at concentrations ranging from 0.23 to 15 μM. Then, the bacteria were spun down, and the fluorescence in the supernatant was determined (Synergy H1 microplate reader, BioTek, 480/510 nm excitation/emission wavelengths). As the controls for 100% GFP release, S. aureus and B. subtilis were lysed using lysostaphin and chicken egg white lysozyme (Sigma), respectively, whereas the E. coli cells were disrupted by ultrasonication.

In another data set the test system is S. aureus RN4220 (pCN68). Description: GFP release assay. In kind it is cell-based, Staphylococcus aureus. The following applies: 2 × 10^6 CFU in PBS, 1 h 37 °C, 0.23 to 15 μM BacSp222, fluorescence of supernatant 480/510 nm. As to the method:
as §1

For data set [2], the target named is T1, human neutrophil elastase (Homo sapiens, UniProt P08246).
T1 construct: purchased Biocentrum
T1 sequence (P08246 30-267): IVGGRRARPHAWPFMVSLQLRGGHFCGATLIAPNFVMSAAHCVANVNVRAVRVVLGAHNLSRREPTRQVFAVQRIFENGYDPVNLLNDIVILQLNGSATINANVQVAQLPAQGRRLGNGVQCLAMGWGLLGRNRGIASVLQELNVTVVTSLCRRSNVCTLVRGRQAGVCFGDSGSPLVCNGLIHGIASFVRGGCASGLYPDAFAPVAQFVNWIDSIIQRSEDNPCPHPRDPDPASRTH
Description: Susceptibility to proteolysis, residual bactericidal activity. The format is in vitro ADME. As to conditions: 30 μM peptide, 100 mM Tris-HCl pH 8.0, enzyme:peptide 1:50 or 1:10 (w/w), 3 hours, 37 °C; residual activity by radial diffusion assay on B. subtilis; triplicate. As to the method: The bactericidal activity of BacSp222 was also determined using the radial diffusion assay. In TSB agar (1%, w/v) containing a 200× diluted overnight culture of Bacillus subtilis ATCC 6633, wells of 2.4-mm diameter were created by drilling out the agar and filling the hole with 10 μl of the BacSp222 preparation for testing. Following overnight incubation at 37 °C, the bactericidal activity was measured as the area of the inhibition zones.
The temperature stability of BacSp222 (30 μM final concentration) was determined in PBS. The solution was incubated for 1 or 3 h at 72 °C (typical temperature of pasteurization) or at 100 °C. Independently, a solution of bacteriocin was also subjected to a full cycle of autoclaving (20 min at 121 °C). The susceptibility of BacSp222 to proteolysis was verified using S. aureus staphopain C and V8 peptidase, human neutrophil elastase, human cathepsin G (Biocentrum), bovine TPCK-treated trypsin, pepsin from porcine gastric mucosa (Sigma), and proteinase K (A&A Biotechnology). The dried samples of BacSp222 were dissolved to a final concentration of 30 μM in the following buffers: 100 mM Tris-HCl pH 8.0 containing 5 mM CaCl2 (for trypsin and proteinase K), 100 mM Tris-HCl pH 7.5 containing 5 mM cysteine hydrochloride and 5 mM EDTA (for staphopain C), 100 mM Tris-HCl pH 8.0 (for elastase), 100 mM Tris-HCl pH 7.5 containing 500 mM NaCl (for cathepsin G), 100 mM sodium phosphate pH 7.8 (for V8 peptidase), and 100 mM ammonium acetate pH 4.0 (for pepsin). The peptidases were added at 1:50 or 1:10 (enzyme:BacSp222) ratios by weight, and the mixtures were incubated for 1 or 3 h at 37 °C. The residual activity was determined with the radial diffusion assay using Bacillus subtilis as an indicator strain. All of the above experiments were performed in triplicate.

The test system of another data set is HeLa cells. The data set can be described thus: Cytotoxicity, LDH and MTT assays. The format is cell-based, human. As to conditions: 4 h exposure, said to be similar to the other cell types (Fig. S7). As to the method:
Human skin fibroblasts (HSF, ATCC CRL-2522), adipose-derived stem cells (ASCs, ATCC PCS-500-011), and HeLa human epithelioid cervix carcinoma cells (ATCC CCL-2) were maintained in Dulbecco’s modified Eagle’s medium (DMEM, Sigma) containing 1 g/l glucose, 10% (v/v) foetal bovine serum (FBS), 1 U/ml penicillin, 1 μg/ml streptomycin, and 2.5 μg/ml amphotericin B. Murine P388/D1 monocyte/macrophage cells (ATCC CCL-46) and murine RAW264.7 macrophage-like cells (ATCC TIB-71) were cultured in DMEM containing 4.5 g/l glucose, 5% (v/v) FBS, and antibiotics, as indicated above. Keratinocytes from human skin were grown in KBM Gold Medium (Lonza). All cells were incubated in standard conditions (5% CO2, 37 °C, >95% humidity). […] After a 30-min incubation (RT, in the dark), the reaction was stopped, and the absorbance was measured with a microplate reader (PowerWave X, BioTek Instruments) at 490 nm, followed by subtraction of the absorbance reference value at 690 nm. […] The absorbance of solubilized purple formazan was measured at 540 nm, followed by subtraction of the absorbance reference value at 690 nm. […] The amount of released haemoglobin was spectrophotometrically determined at 540 nm and compared with a positive control (erythrocytes lysed with 1% sodium dodecyl sulphate).
For orientation: Formazan colour is commonly taken as a measure of viable cells.

Consider “For-MAGLLRFLLSKGRALYNWAKSHVGKVWEWLKSGATYEQIKEWIENALGWR [BacSp222]”, for which the “leakage of GFP from recombinant cells” value (in data set [1]; in the data set with S. aureus RN4220 (pCN68)) was “dose-dependent leakage of GFP was observed” in each case. The “activity of BacSp222 after incubation with the enzyme” value in data set [2] is given as “not significantly reduced”. The cytotoxic effect result in the data set on HeLa cells is on record as “sigmoidal, dose-dependent cytotoxic effect”.
